Measurements from patent publication US11952611B2, “Methods and systems for detection of antibiotic resistance” (Laboratory Corporation of America Holdings, priority 2017, dated 2024).

Key:
MSSA = test: Optimization of cefoxitin concentration (Table 2), MSSA strains; assay type: cell-based, Staphylococcus aureus
Description: Bacterial strains were serially diluted to approximately 1×10^3 CFU/mL and transferred to a 96-well plate at 135 μL per well. 15 μL of cefoxitin was added to the wells to reach a final concentration of 1.4 μg/mL, 1.6 μg/mL, 1.8 μg/mL or 2.0 μg/mL. The plate was then sealed and incubated at 37° C. for 2 hours. 10 μL of recombinant phage (1.6×10^8 pfu/mL) was added to each well. The plate was then re-sealed and incubated at 37° C. for an additional 2 hours. A master mix was made containing 15 μL 5× lysis buffer, 50 μL luciferase assay buffer, and 1 μL luciferase substrate per well. 65 μL of master mix was added to each well. Luminescence from the reactions were read on a GLOMAX® Navigator and relative luminal units (RLU) for each reaction were plotted and analyzed. RLU values three times greater than an established background RLU level for LB (>750 RLU) were considered positive. The results, shown in Table 2, indicate that the recombinant phage are capable of detecting these bacterial strains. […] Positive results are in bold.

12600 MSSA = test: Effect of duration of antibiotic and phage exposure on MSSA signal (Table 5); assay type: cell-based, Staphylococcus aureus
Description: Bacterial strains were serially diluted and transferred to a 96-well plate at 135 μL per well. 15 μL of cefoxitin was added to the wells to reach a final concentration of 1.8 μg/mL, 3.6 μg/mL, or 5.4 μg/mL. The plate was then sealed and incubated at 37° C. for 2 hours or 3 hours. 10 μL of recombinant phage (1.6×10^8 pfu/mL) was added to each well. The plate was then re-sealed and incubated at 37° C. for an additional 1 or 2 hours. A master mix was made containing 15 μL 5× lysis buffer, 50 μL luciferase assay buffer, and 1 μL luciferase substrate per well. 65 μL of master mix was added to each well. Luminescence from the reactions was read on a GLOMAX® Navigator and relative luminal units (RLU) for each reaction were plotted and analyzed. RLU values three times greater than an established background RLU level for LB (>750 RLU) were considered positive. The results, shown in Table 5, indicate that the number of MSSA strains producing false-positives at the previously established cut-off of 1.8 μg/mL cefoxitin were reduced with a 3-hour antibiotic/1-hour phage protocol when compared to a 2-hour antibiotic/2-hour phage protocol. A false positive occurred at 541 CFU with the 2-hour antibiotic/2-hour phage protocol. Whereas, the 3-hour antibiotic/1-hour phage protocol produced false positives at 4331 CFU. Positive results are in bold. In Table 5, CFU values (541 CFU and 305 CFU) were experimentally validated by direct plating.

[1] = strain 12600 MSSA, detected CFU 401
[2] = strain AR0484 MSSA, detected CFU 107
[3] = strain AR0485 MSSA, detected CFU 248
[4] = strain AR0486 MSSA, detected CFU 163
[5] = strain AR0487 MSSA, detected CFU 198
[6] = strain AR0488 MSSA, detected CFU 360
[7] = strain AR0489 MSSA, detected CFU 186
[8] = strain AR0490 MSSA, detected CFU 109
[9] = strain AR0491 MSSA, detected CFU 239
[10] = strain AR0492 MSSA, detected CFU 130
[11] = strain BAA-1721 MSSA, detected CFU 166

CO[C@@]1(NC(=O)Cc2cccs2)C(=O)N2C(C(=O)O)=C(COC(N)=O)CS[C@@H]21 [Cefoxitin, cefoxitin]
effect on positive signal (MSSA; 1.8 ug/mL, most MSSA strains): selectively inhibit a positive signal | Cefoxitin Concentration 1.4 ug/mL (MSSA; [1]): 2489 RLU | Cefoxitin Concentration 1.6 ug/mL (MSSA; [1]): 1596 RLU | Cefoxitin Concentration 1.8 ug/mL (MSSA; [1]): 974 RLU | Cefoxitin Concentration 2 ug/mL (MSSA; [1]): 750 RLU | Cefoxitin Concentration 1.4 ug/mL (MSSA; [2]): 174 RLU | Cefoxitin Concentration 1.6 ug/mL (MSSA; [2]): 176 RLU | Cefoxitin Concentration 1.8 ug/mL (MSSA; [2]): 187 RLU | Cefoxitin Concentration 2 ug/mL (MSSA; [2]): 181 RLU | Cefoxitin Concentration 1.4 ug/mL (MSSA; [3]): 1328 RLU | Cefoxitin Concentration 1.6 ug/mL (MSSA; [3]): 812 RLU | Cefoxitin Concentration 1.8 ug/mL (MSSA; [3]): 655 RLU | Cefoxitin Concentration 2 ug/mL (MSSA; [3]): 404 RLU | Cefoxitin Concentration 1.4 ug/mL (MSSA; [4]): 4238 RLU | Cefoxitin Concentration 1.6 ug/mL (MSSA; [4]): 1743 RLU | Cefoxitin Concentration 1.8 ug/mL (MSSA; [4]): 1099 RLU | Cefoxitin Concentration 2 ug/mL (MSSA; [4]): 794 RLU | Cefoxitin Concentration 1.4 ug/mL (MSSA; [5]): 336 RLU | Cefoxitin Concentration 1.6 ug/mL (MSSA; [5]): 227 RLU | Cefoxitin Concentration 1.8 ug/mL (MSSA; [5]): 204 RLU | Cefoxitin Concentration 2 ug/mL (MSSA; [5]): 165 RLU | Cefoxitin Concentration 1.4 ug/mL (MSSA; [6]): 2274 RLU | Cefoxitin Concentration 1.6 ug/mL (MSSA; [6]): 1149 RLU | Cefoxitin Concentration 1.8 ug/mL (MSSA; [6]): 402 RLU | Cefoxitin Concentration 2 ug/mL (MSSA; [6]): 256 RLU | Cefoxitin Concentration 1.4 ug/mL (MSSA; [7]): 6208 RLU | Cefoxitin Concentration 1.6 ug/mL (MSSA; [7]): 3172 RLU | Cefoxitin Concentration 1.8 ug/mL (MSSA; [7]): 2029 RLU | Cefoxitin Concentration 2 ug/mL (MSSA; [7]): 870 RLU | Cefoxitin Concentration 1.4 ug/mL (MSSA; [8]): 1277 RLU | Cefoxitin Concentration 1.6 ug/mL (MSSA; [8]): 598 RLU | Cefoxitin Concentration 1.8 ug/mL (MSSA; [8]): 423 RLU | Cefoxitin Concentration 2 ug/mL (MSSA; [8]): 258 RLU | Cefoxitin Concentration 1.4 ug/mL (MSSA; [9]): 1438 RLU | Cefoxitin Concentration 1.6 ug/mL (MSSA; [9]): 676 RLU | Cefoxitin Concentration 1.8 ug/mL (MSSA; [9]): 518 RLU | Cefoxitin Concentration 2 ug/mL (MSSA; [9]): 338 RLU | Cefoxitin Concentration 1.4 ug/mL (MSSA; [10]): 1883 RLU | Cefoxitin Concentration 1.6 ug/mL (MSSA; [10]): 839 RLU | Cefoxitin Concentration 1.8 ug/mL (MSSA; [10]): 556 RLU | Cefoxitin Concentration 2 ug/mL (MSSA; [10]): 246 RLU | Cefoxitin Concentration 1.4 ug/mL (MSSA; [11]): 2753 RLU | Cefoxitin Concentration 1.6 ug/mL (MSSA; [11]): 1087 RLU | Cefoxitin Concentration 1.8 ug/mL (MSSA; [11]): 441 RLU | Cefoxitin Concentration 2 ug/mL (MSSA; [11]): 258 RLU | Cefoxitin (RLU) - 2 Hour Antibiotic + 2 Hour Phage 1.8 ug/mL (12600 MSSA; detected CFU 305): 600 RLU | Cefoxitin (RLU) - 2 Hour Antibiotic + 2 Hour Phage 3.6 ug/mL (12600 MSSA; detected CFU 305): 225 RLU | Cefoxitin (RLU) - 2 Hour Antibiotic + 2 Hour Phage 5.4 ug/mL (12600 MSSA; detected CFU 305): 244 RLU | Cefoxitin (RLU) - 3 Hour Antibiotic + 1 Hour Phage 1.8 ug/mL (12600 MSSA; detected CFU 305): 267 RLU | Cefoxitin (RLU) - 3 Hour Antibiotic + 1 Hour Phage 3.6 ug/mL (12600 MSSA; detected CFU 305): 198 RLU | Cefoxitin (RLU) - 3 Hour Antibiotic + 1 Hour Phage 5.4 ug/mL (12600 MSSA; detected CFU 305): 184 RLU | Cefoxitin (RLU) - 2 Hour Antibiotic + 2 Hour Phage 1.8 ug/mL (12600 MSSA; detected CFU 541): 1065 RLU | Cefoxitin (RLU) - 2 Hour Antibiotic + 2 Hour Phage 3.6 ug/mL (12600 MSSA; detected CFU 541): 224 RLU | Cefoxitin (RLU) - 2 Hour Antibiotic + 2 Hour Phage 5.4 ug/mL (12600 MSSA; detected CFU 541): 217 RLU | Cefoxitin (RLU) - 3 Hour Antibiotic + 1 Hour Phage 1.8 ug/mL (12600 MSSA; detected CFU 541): 258 RLU | Cefoxitin (RLU) - 3 Hour Antibiotic + 1 Hour Phage 3.6 ug/mL (12600 MSSA; detected CFU 541): 215 RLU | Cefoxitin (RLU) - 3 Hour Antibiotic + 1 Hour Phage 5.4 ug/mL (12600 MSSA; detected CFU 541): 171 RLU | Cefoxitin (RLU) - 2 Hour Antibiotic + 2 Hour Phage 1.8 ug/mL (12600 MSSA; detected CFU 1083): 1718 RLU | Cefoxitin (RLU) - 2 Hour Antibiotic + 2 Hour Phage 3.6 ug/mL (12600 MSSA; detected CFU 1083): 395 RLU | Cefoxitin (RLU) - 2 Hour Antibiotic + 2 Hour Phage 5.4 ug/mL (12600 MSSA; detected CFU 1083): 277 RLU | Cefoxitin (RLU) - 3 Hour Antibiotic + 1 Hour Phage 1.8 ug/mL (12600 MSSA; detected CFU 1083): 415 RLU | Cefoxitin (RLU) - 3 Hour Antibiotic + 1 Hour Phage 3.6 ug/mL (12600 MSSA; detected CFU 1083): 201 RLU | Cefoxitin (RLU) - 3 Hour Antibiotic + 1 Hour Phage 5.4 ug/mL (12600 MSSA; detected CFU 1083): 208 RLU | Cefoxitin (RLU) - 2 Hour Antibiotic + 2 Hour Phage 1.8 ug/mL (12600 MSSA; detected CFU 2165): 3046 RLU | Cefoxitin (RLU) - 2 Hour Antibiotic + 2 Hour Phage 3.6 ug/mL (12600 MSSA; detected CFU 2165): 424 RLU | Cefoxitin (RLU) - 2 Hour Antibiotic + 2 Hour Phage 5.4 ug/mL (12600 MSSA; detected CFU 2165): 331 RLU | Cefoxitin (RLU) - 3 Hour Antibiotic + 1 Hour Phage 1.8 ug/mL (12600 MSSA; detected CFU 2165): 604 RLU | Cefoxitin (RLU) - 3 Hour Antibiotic + 1 Hour Phage 3.6 ug/mL (12600 MSSA; detected CFU 2165): 218 RLU | Cefoxitin (RLU) - 3 Hour Antibiotic + 1 Hour Phage 5.4 ug/mL (12600 MSSA; detected CFU 2165): 202 RLU | Cefoxitin (RLU) - 2 Hour Antibiotic + 2 Hour Phage 1.8 ug/mL (12600 MSSA; detected CFU 4331): 5703 RLU | Cefoxitin (RLU) - 2 Hour Antibiotic + 2 Hour Phage 3.6 ug/mL (12600 MSSA; detected CFU 4331): 563 RLU | Cefoxitin (RLU) - 2 Hour Antibiotic + 2 Hour Phage 5.4 ug/mL (12600 MSSA; detected CFU 4331): 487 RLU | Cefoxitin (RLU) - 3 Hour Antibiotic + 1 Hour Phage 1.8 ug/mL (12600 MSSA; detected CFU 4331): 933 RLU | Cefoxitin (RLU) - 3 Hour Antibiotic + 1 Hour Phage 3.6 ug/mL (12600 MSSA; detected CFU 4331): 196 RLU | Cefoxitin (RLU) - 3 Hour Antibiotic + 1 Hour Phage 5.4 ug/mL (12600 MSSA; detected CFU 4331): 194 RLU | Cefoxitin (RLU) - 2 Hour Antibiotic + 2 Hour Phage 1.8 ug/mL (12600 MSSA; detected CFU 8662): 11570 RLU | Cefoxitin (RLU) - 2 Hour Antibiotic + 2 Hour Phage 3.6 ug/mL (12600 MSSA; detected CFU 8662): 1224 RLU | Cefoxitin (RLU) - 2 Hour Antibiotic + 2 Hour Phage 5.4 ug/mL (12600 MSSA; detected CFU 8662): 979 RLU | Cefoxitin (RLU) - 3 Hour Antibiotic + 1 Hour Phage 1.8 ug/mL (12600 MSSA; detected CFU 8662): 1563 RLU | Cefoxitin (RLU) - 3 Hour Antibiotic + 1 Hour Phage 3.6 ug/mL (12600 MSSA; detected CFU 8662): 247 RLU | Cefoxitin (RLU) - 3 Hour Antibiotic + 1 Hour Phage 5.4 ug/mL (12600 MSSA; detected CFU 8662): 224 RLU | Cefoxitin (RLU) - 2 Hour Antibiotic + 2 Hour Phage 1.8 ug/mL (12600 MSSA; detected CFU 17323): 22890 RLU | Cefoxitin (RLU) - 2 Hour Antibiotic + 2 Hour Phage 3.6 ug/mL (12600 MSSA; detected CFU 17323): 2071 RLU | Cefoxitin (RLU) - 2 Hour Antibiotic + 2 Hour Phage 5.4 ug/mL (12600 MSSA; detected CFU 17323): 1493 RLU | Cefoxitin (RLU) - 3 Hour Antibiotic + 1 Hour Phage 1.8 ug/mL (12600 MSSA; detected CFU 17323): 2695 RLU | Cefoxitin (RLU) - 3 Hour Antibiotic + 1 Hour Phage 3.6 ug/mL (12600 MSSA; detected CFU 17323): 255 RLU | Cefoxitin (RLU) - 3 Hour Antibiotic + 1 Hour Phage 5.4 ug/mL (12600 MSSA; detected CFU 17323): 246 RLU
